Assay [1] relates to B16 murine melanoma cells. Briefly: Melanin assay - B16 murine melanoma. Type of assay: cell-based. The note with it: tested at 0.04%. How it is done:
The R7-B16 cells were cultivated in 24 well plates (1000 cells/well). At 20% confluence, culture media were replaced by fresh media containing or not containing (control) the test compound, KA or IBMX (references) or DMSO at a final concentration of 0.5% (control DMSO). Each experimental condition was examined in triplicate. The cells were incubated at 37° C. for 144 hours with medium change after 3 days (2×72 h).
(§1) After incubation, the cell monolayers were rinsed, the cells were lysed and melanin was extracted by a solution 0.5 M NaOH. The optical density (OD) of each experimental point was measured at 405 nm against melanin standards (standard curve 0.39 to 100 μg melanin/ml solution, Sigma M8631). Results were expressed in μg melanin/ml and in percent of the negative control.
(§2) The raw data were transferred to and analyzed with PRISM® software (Graph Pad Software). The inter-group comparisons were performed by variance analysis (ANOVA) with multiple comparison test of Dunnett.

For assay [2], the system named is Normal human epidermal melanocytes (NHEM-2). The assay can be described thus: Melanin assay - normal human melanocytes. The format is cell-based. Particulars: for Melanin: 240 hours incubation; for % of control (melanin content): 240 hours, vs control. How it is done: The R6-NHEM-2 cells were cultivated in 24 well plates (120,000 cells/well). At 50% confluence, culture media were replaced by fresh media containing or not containing (control) the test compound, KA or IBMX (references) or DMSO at a final concentration of 0.5% (control DMSO). Each experimental condition was examined in triplicate (hexaplicate for control). The cells were incubated at 37° C. for 240 hours with medium change every 3 days.
as §1, §2

On to `O=c1cc(CO)occ1O` [Kojic Acid], for which the Melanin in assay [1] (144 hours incubation) is 14.9 µg/mL; in assay [2] (tested at 0.00156%), 16.1 µg/mL; in assay [2] (tested at 0.0036%) it was 13.6 µg/mL. Besides, the “% of control (melanin content)” value in assay [1] (144 hours, vs control) came out at 88%; in assay [2] (tested at 0.00156%), 79%; in assay [2] (tested at 0.0036%), 67%.

Source of the values: patent publication US8398958B2, “Carotenoid compositions useful for whitening skin” (I.B.R. Israeli Biotechnology Research Ltd., priority 2006, dated 2013).
